In ChEMBL document CHEMBL1136757 (J Med Chem, 2003):
Values joined by “and” are separate entries in the source; they are usually repeats but may differ in a detail not shown here. Identical values can stand only once. Blank lines part the entries; values can stand above or below the molecule they belong to.

Legend:
[1] = target: T1, Aldo-keto reductase family 1 member A1 (Rattus norvegicus, UniProt P51635); test: In vitro inhibitory activity against aldehyde reductase 1 (ALR1) from rat kidney.
T1 sequence (P51635 whole entry): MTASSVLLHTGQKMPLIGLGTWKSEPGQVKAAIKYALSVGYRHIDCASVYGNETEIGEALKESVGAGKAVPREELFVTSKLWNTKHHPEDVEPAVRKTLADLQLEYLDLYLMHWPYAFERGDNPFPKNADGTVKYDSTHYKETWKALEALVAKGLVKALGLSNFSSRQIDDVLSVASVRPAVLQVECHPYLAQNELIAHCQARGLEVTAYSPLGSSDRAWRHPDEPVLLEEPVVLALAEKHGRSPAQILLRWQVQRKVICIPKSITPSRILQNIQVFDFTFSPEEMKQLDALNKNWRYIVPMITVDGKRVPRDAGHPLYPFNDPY

[2] = In vitro inhibitory activity against sorbitol dehydrogenase (SD) from sheep liver; Not active
[3] = target: Aldo-keto reductase family 1 member B1 (Rattus norvegicus, UniProt P07943); test: In vitro inhibitory activity against aldose reductase (ALR2) from rat lens extraction.
[4] = target: T2, Glutathione reductase (Saccharomyces cerevisiae S288c, UniProt P41921); test: In vitro inhibitory activity against glutathione reductase (GR) from bakers yeast; Not active
T2 sequence (P41921 whole entry): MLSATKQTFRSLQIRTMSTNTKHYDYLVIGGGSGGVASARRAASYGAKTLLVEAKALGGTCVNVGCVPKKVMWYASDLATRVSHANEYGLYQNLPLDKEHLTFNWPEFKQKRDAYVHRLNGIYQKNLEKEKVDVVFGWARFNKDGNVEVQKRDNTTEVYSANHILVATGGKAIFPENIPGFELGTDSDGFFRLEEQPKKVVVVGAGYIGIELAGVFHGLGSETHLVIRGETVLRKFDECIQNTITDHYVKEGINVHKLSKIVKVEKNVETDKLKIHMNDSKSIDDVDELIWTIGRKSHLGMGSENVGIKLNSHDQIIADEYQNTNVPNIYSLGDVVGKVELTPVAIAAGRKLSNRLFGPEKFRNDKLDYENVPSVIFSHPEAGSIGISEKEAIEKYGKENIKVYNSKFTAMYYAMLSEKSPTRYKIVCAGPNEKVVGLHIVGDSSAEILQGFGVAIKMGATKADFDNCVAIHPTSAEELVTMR

[5] = target: T2, Glutathione reductase; test: In vitro inhibitory activity against glutathione reductase (GR) from bakers yeast
[6] = species: Rattus norvegicus; test: Ability to prevent cataract development in severly galactosemic rat treated with 3 percent ophthalmic solution on day 11; format: functional
[7] = species: Rattus norvegicus; test: Ability to prevent cataract development in severly galactosemic rat treated with 3 percent ophthalmic solution on day 17; format: functional
[8] = species: Rattus norvegicus; test: Ability to prevent cataract development in severly galactosemic rat treated with 3 percent ophthalmic solution on day 12; format: functional
[9] = species: Rattus norvegicus; test: Ability to prevent cataract development in severly galactosemic rat treated with 3 percent ophthalmic solution on day 20; format: functional
[10] = species: Rattus norvegicus; test: Ability to prevent cataract development in severly galactosemic rat treated with 3 percent ophthalmic solution on day 18; format: functional
[11] = species: Rattus norvegicus; test: Ability to prevent cataract development in severly galactosemic rat treated with 3 percent ophthalmic solution on day 19; format: functional
[12] = species: Rattus norvegicus; test: Ability to prevent cataract development in severly galactosemic rat treated with 3 percent ophthalmic solution on day 21; format: functional
[13] = species: Rattus norvegicus; test: Ability to prevent cataract development in severly galactosemic rat treated with 3 percent ophthalmic solution on day 16; format: functional
[14] = species: Rattus norvegicus; test: Ability to prevent cataract development in severly galactosemic rat treated with 3 percent ophthalmic solution on day 13; format: functional
[15] = species: Rattus norvegicus; test: Ability to prevent cataract development in severly galactosemic rat treated with 3 percent ophthalmic solution on day 15; format: functional
[16] = species: Rattus norvegicus; test: Ability to prevent cataract development in severly galactosemic rat treated with 3 percent ophthalmic solution on day 14; format: functional
[17] = species: Rattus norvegicus; test: Ability to prevent cataract development in severly galactosemic rat treated with 1 percent ophthalmic solution on day 14; format: functional
[18] = species: Rattus norvegicus; test: Ability to prevent cataract development in severly galactosemic rat treated with 1 percent ophthalmic solution on day 20; format: functional
[19] = species: Rattus norvegicus; test: Ability to prevent cataract development in severly galactosemic rat treated with 1 percent ophthalmic solution on day 12; format: functional
[20] = species: Rattus norvegicus; test: Ability to prevent cataract development in severly galactosemic rat treated with 1 percent ophthalmic solution on day 21; format: functional
[21] = species: Rattus norvegicus; test: Ability to prevent cataract development in severly galactosemic rat treated with 1 percent ophthalmic solution on day 19; format: functional
[22] = species: Rattus norvegicus; test: Ability to prevent cataract development in severly galactosemic rat treated with 1 percent ophthalmic solution on day 11; format: functional
[23] = species: Rattus norvegicus; test: Ability to prevent cataract development in severly galactosemic rat treated with 1 percent ophthalmic solution on day 15; format: functional
[24] = species: Rattus norvegicus; test: Ability to prevent cataract development in severly galactosemic rat treated with 1 percent ophthalmic solution on day 17; format: functional
[25] = species: Rattus norvegicus; test: Ability to prevent cataract development in severly galactosemic rat treated with 1 percent ophthalmic solution on day 13; format: functional
[26] = species: Rattus norvegicus; test: Ability to prevent cataract development in severly galactosemic rat treated with 1 percent ophthalmic solution on day 16; format: functional
[27] = species: Rattus norvegicus; test: Ability to prevent cataract development in severly galactosemic rat treated with 1 percent ophthalmic solution on day 18; format: functional

IC50 [1]: 490 nM
IC50 [2]: Not Active
IC50 [3]: 130 nM and 58 nM
IC50 [4]: Not Active
SMILES: N#CC(C(=O)O)C1C(=O)N(Cc2ccc(F)cc2)c2ccc(F)cc21 (centres undefined)

IC50 [3]: 180 nM
SMILES: N#CC(C(=O)O)C1C(=O)N(Cc2ccccc2)c2ccc(F)cc21 (centres undefined)

IC50 [3]: 390 nM
SMILES: CN1C(=O)C(C(C#N)C(=O)O)c2cc(F)ccc21 (centres undefined)

IC50 [3]: 570 nM
SMILES: N#CC(C(=O)O)C1C(=O)N(Cc2ccc(F)cc2)c2ccccc21 (centres undefined)

IC50 [3]: 280 nM
SMILES: CCCN1C(=O)C(C(C#N)C(=O)O)c2cc(F)ccc21 (centres undefined)

IC50 [4]: Not Active
SMILES: O=C1NC(=O)[C@@]2(CCOc3ccc(F)cc32)N1 [SORBINIL]

IC50 [1]: 6790 nM
IC50 [2]: Not Active
IC50 [3]: 280 nM
IC50 [4]: Not Active
SMILES: N#CC(C(=O)O)C1C(=O)Nc2ccc(F)cc21 (centres undefined)

IC50 [3]: 5400 nM
SMILES: COc1ccc2c(c1)C(C(C#N)C(=O)O)C(=O)N2 (centres undefined)

IC50 [3]: 110 nM
SMILES: COc1ccc(CN2C(=O)C(C(C#N)C(=O)O)c3cc(F)ccc32)cc1 (centres undefined)

IC50 [3]: 380 nM
SMILES: N#CC(C(=O)O)C1C(=O)Nc2ccc(Br)cc21 (centres undefined)

IC50 [1]: 690 nM
IC50 [3]: 75 nM and 42 nM
IC50 [4]: Not Active
SMILES: Cc1ccc(CN2C(=O)C(C(C#N)C(=O)O)c3cc(F)ccc32)cc1 (centres undefined)
Nuclear cataract [6]: 0%
Nuclear cataract [7]: 57%
Nuclear cataract [8]: 0%
Nuclear cataract [9]: 96%
Nuclear cataract [10]: 72%
Nuclear cataract [11]: 84%
Nuclear cataract [12]: 100%
Nuclear cataract [13]: 57%
Nuclear cataract [14]: 0%
Nuclear cataract [15]: 43%
Nuclear cataract [16]: 18%

Second part, the molecule before the results:

SMILES: N#CC(C(=O)O)C1C(=O)N(Cc2ccccc2)c2ccccc21 (centres undefined)
IC50 [3]: 3200 nM

SMILES: N#CC(C(=O)O)C1C(=O)Nc2ccccc21 (centres undefined)
IC50 [3]: 850 nM

SMILES: N#CC(C(=O)O)C1C(=O)N(Cc2ccc(C(F)(F)F)cc2)c2ccccc21 (centres undefined)
IC50 [3]: 570 nM

SMILES: Cc1ccc(CN2C(=O)C(C(C#N)C(=O)O)c3cc(Br)ccc32)cc1 (centres undefined)
IC50 [3]: 250 nM

SMILES: N#CC(C(=O)O)C1C(=O)N(CCCl)c2ccc(F)cc21 (centres undefined)
IC50 [3]: 1340 nM

SMILES: O=c1c(O)c(-c2ccc(O)c(O)c2)oc2cc(O)cc(O)c12 [QUERCETIN]
IC50 [5]: 48800 nM

SMILES: Cc1ccc(CN2C(=O)C(C(C#N)C(=O)OC(C)C)c3cc(F)ccc32)cc1 (centres undefined)
Nuclear cataract [6]: 0%
Nuclear cataract [7]: 0%
Nuclear cataract [8]: 0%
Nuclear cataract [9]: 8%
Nuclear cataract [10]: 0%
Nuclear cataract [11]: 8%
Nuclear cataract [12]: 8%
Nuclear cataract [13]: 0%
Nuclear cataract [14]: 0%
Nuclear cataract [15]: 0%
Nuclear cataract [16]: 0%

SMILES: Cc1ccc(CN2C(=O)C(C(C#N)C(=O)O)c3ccccc32)cc1 (centres undefined)
IC50 [1]: 3570 nM
IC50 [2]: Not Active
IC50 [3]: 640 nM and 460 nM
IC50 [4]: Not Active

SMILES: N#CC(C(=O)O)C1C(=O)Nc2ccc([N+](=O)[O-])cc21 (centres undefined)
IC50 [3]: 1200 nM

SMILES: COc1ccc(CN2C(=O)C(C(C#N)C(=O)O)c3ccccc32)cc1 (centres undefined)
IC50 [3]: 630 nM

SMILES: N#CC(C(=O)O)C1C(=O)N(Cc2ccc(C(F)(F)F)cc2)c2ccc(F)cc21 (centres undefined)
IC50 [3]: 280 nM

SMILES: COc1ccc2c(C(=S)N(C)CC(=O)O)cccc2c1C(F)(F)F [TOLRESTAT]
Nuclear cataract [17]: 23%
Nuclear cataract [6]: 0%
Nuclear cataract [7]: 0%
Nuclear cataract [18]: 47%
Nuclear cataract [8]: 0%
Nuclear cataract [19]: 0%
IC50 [1]: Not Active
Nuclear cataract [20]: 47%
Nuclear cataract [9]: 0%
Nuclear cataract [21]: 43%
Nuclear cataract [10]: 0%
Nuclear cataract [22]: 0%
Nuclear cataract [23]: 32%
Nuclear cataract [24]: 32%
Nuclear cataract [25]: 0%
IC50 [3]: 46 nM
IC50 [4]: Not Active
Nuclear cataract [11]: 0%
Nuclear cataract [26]: 32%
Nuclear cataract [12]: 0%
Nuclear cataract [13]: 0%
Nuclear cataract [14]: 0%
Nuclear cataract [15]: 0%
Nuclear cataract [16]: 0%
Nuclear cataract [27]: 43%
